US20080108710A1, “High-Potency Sweetener Composition With Preservative and Compositions Sweetened Therewith” (THE COCA-COLA COMPANY, priority 2006, published 2008)

Experiments:
[1] = system: panel of experts in the sensory evaluation of foods and beverages; experiment: Sensory evaluation of sweetness linger and taste characteristics; assay type: in vivo; design: key: 0: no sweetness linger; 1: very slight sweetness linger; 2: slight sweetness linger; 3: moderate sweetness linger; 4: moderately high sweetness linger; 5: high sweetness linger
Method: Sensory evaluation of the samples prepared in Example Set G was carried out under the following protocol, similar to that described hereinabove. In this test protocol, none of the samples were swallowed. All samples were expectorated and the mouth was rinsed with water after the tasting. Immediately upon sensing maximal sweetness, the sample was expectorated, the mouth was rinsed with water and the rate of sweetness decay (“Sweetness Linger”) was measured, where attention was focused on the sweetness 3-4 min after the water rinse. After sample tasting was complete, a salty oyster cracker was chewed followed by a water rinse, and at least 5 minutes followed before tasting the next sample. […]
Sweet taste improving compositions were combined with a REBA solution to determine their effect on sweetness linger. Screening of the initial sample, or further dilutions, allowed identification of concentrations which were just above-threshold, herein defined as “near-threshold concentrations.” The near-threshold additive concentrations, a 6- to 100-fold higher higher additive concentration (depending on the off-taste intensity), and a mid-level additive concentration (halfway between the near-threshold and higher additive concentration) were evaluated to determine the effect on sweetness linger of a REBA solution. […]

[2] = Rate of dissolution of rebaudioside A polymorph and amorphous forms in H2O; assay type: physicochemical
Description: The purification of rebaudioside A by crystallization as described above results in the formation of at least three different polymorphs: Form 1: a rebaudioside A hydrate; Form 2: an anhydrous rebaudioside A; and Form 3: a rebaudioside A solvate. In addition to the at least three polymorph forms of rebaudioside A, the purification of rebaudioside A may result in the formation of an amorphous form of rebaudioside A, Form 4. The aqueous organic solution and temperature of the purification process influence the resulting polymorph and amorphous forms in the substantially pure rebaudioside A composition. FIGS. 1-5 are exemplary powder x-ray diffraction (XRPD) scans of the polymorph and amorphous forms of rebaudioside A: Form 1 (hydrate), Form 2 (anhydrate), Form 3A (methanol solvate), Form 3B (ethanol solvate), and Form 4 (amorphous), respectively.

With rebaudioside A the “Sweetness Linger” value ([1]; Example Set G: citric acid/potassium citrate composition equivalent to diet lemon-lime beverage, scale 0-5, sweetness 3-4 min after water rinse) was 5 and the “Sweetness Linger” value ([1]; Example Set H: carbon-treated water with phosphoric acid (75%) to pH 2.4-2.5, scale 0-5) was 5.
In the case of rebaudioside A [Form 1], the “Rate of dissolution in H2O at 25° C.” value [2] is reported as “Very low (<0.2%/60 %/60 minutes”.
With rebaudioside A [Form 2] the “Rate of dissolution in H2O at 25° C.” value [2] was “Intermediate (<30%/5 %/5 minutes”.
